Results reported in publication PMC11061835, “Elucidating the Mechanism of Metabolism of Cannabichromene by Human Cytochrome P450s” (Journal of Natural Products, 2024).
pEC50, pKd, pKi: −log10 of the molar value. “And” between values parts separate entries of the source, which are not always exact repeats. Equal entries are not always repeated.

Key:
[1] = In vivo metabolism of CBC, mouse blood plasma (LC-MS/MS); parameters: species or system mice
Experimental: CBC was dissolved in ethanol, and an aliquot was then mixed with Tween-80. Ethanol was removed by evaporation. The mixture was then reconstituted with PBS to a 6% final concentration of Tween-80. C 57BL/6J female mice, age 8–10 weeks, were injected with 20 mg/kg CBC or vehicle intravenously (IV, n = 3) via the tail vein or intraperitoneally (IP, n = 3). Blood samples were collected terminally by cardiac puncture into heparin-coated syringes at 0.5 and 2 h after CBC treatment and transferred into tubes. The tubes were then centrifuged, and plasma samples were removed and stored at −80 °C.
200 μL of blood plasma from each sample was taken into a glass tube, and 500 μL of extraction solvent (hexane:ethyl acetate 80:20 v/v) was added. The remaining extraction steps are similar to those used for CBC metabolite extraction from CYPs as mentioned earlier.
Samples were analyzed with the 5500 QTRAP LC/MS/MS system (Sciex, Framingham, MA) in the Metabolomics Lab of Roy J. Carver Biotechnology Center, University of Illinois at Urbana–Champaign. Software Analyst 1.7.1 was used for data acquisition and analysis. The 1200 series HPLC system (Agilent Technologies, Santa Clara, CA) includes a degasser, an autosampler, and a binary pump. The LC separation was performed on a Phenomenex Gemini C6-phenyl column (2 × 100 mm, 3 μm) with mobile phase A (0.1% formic acid in water) and mobile phase B (0.1% formic acid in acetonitrile). The flow rate was 0.2 mL/min. The linear gradient was as follows: 0–2 min, 95% A; 10 min, 50% A; 20–25 min, 0% A; 25.1–31 min, 95% A. The autosampler was set at 10 °C. The injection volume was 5 μL. Mass spectra were acquired under positive electrospray ionization (ESI) with the ion spray voltage of +5000 V. The source temperature was 400 °C. The curtain gas, ion source gas 1, and ion source gas 2 were 325, 65, and 55 psi, respectively. Multiple reaction monitoring (MRM) was used for quantitation: CBC m/z 315.1 → m/z 135.0; 1-acetoxy-6′,7′-dihydroxy-CBC (JM-I-73) m/z 349.1→ m/z 193.0; 1″-hydroxy-CBC (JM-I-66) m/z 331.1→ m/z 275.1; 6′,7′-epoxy-CBC (JM-I-27) m/z 331.1→ m/z 193.0; 7′,10′-ene-6′-hydroxy-CBC (JM-I-30) m/z 331.1→ m/z 193.0; 8′-hydroxy-CBC (JM-I-32) […]→ m/z 77.0. Internal standard EET-EA-d11 was monitored at m/z 375.2→ m/z 357.1.

CYP2C8 = target: T1, CYP2C8 (Homo sapiens, UniProt P10632); test: Spectroscopic titration (Soret shift), CYP2C8; type: binding; settings: CYP2C8, absence of CPR
T1 construct: His-tag; made in house; host or cells: E. coli DH-5α with pTGro7 plasmid
T1 sequence (P10632 1-490): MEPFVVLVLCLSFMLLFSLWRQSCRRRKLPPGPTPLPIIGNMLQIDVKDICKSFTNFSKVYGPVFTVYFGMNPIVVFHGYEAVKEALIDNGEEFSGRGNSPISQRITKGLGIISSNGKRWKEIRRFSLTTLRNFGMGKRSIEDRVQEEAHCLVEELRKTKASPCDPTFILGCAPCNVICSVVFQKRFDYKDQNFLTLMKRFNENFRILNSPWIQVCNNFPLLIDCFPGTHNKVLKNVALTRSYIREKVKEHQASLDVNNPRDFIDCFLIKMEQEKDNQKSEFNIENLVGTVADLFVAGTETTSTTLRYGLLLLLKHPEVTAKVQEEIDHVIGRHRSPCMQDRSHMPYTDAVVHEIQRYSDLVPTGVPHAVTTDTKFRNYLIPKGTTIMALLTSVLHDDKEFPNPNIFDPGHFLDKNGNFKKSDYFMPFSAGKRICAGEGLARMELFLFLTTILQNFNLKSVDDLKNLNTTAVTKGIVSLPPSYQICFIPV
Experimental: CBC binding to various CYPs was determined by analyzing the Soret shift from ∼417 to ∼390 nm. CBC (stock 10 mM) was dissolved in ethanol and titrated with different CYPs at room temperature. Buffer-exchanged CYP2J2, CYP2D6, CYP3A4, and CYP2C8 (concentrations of proteins were kept between 4 and 5 μM) were dissolved in 0.1 M phosphate buffer (pH = 7.4), and initial spectra were recorded from 200 to 800 nm with a prominent peak at 417 nm. The concentration of CBC was varied from 0 to 100 μM keeping the final concentration of substrate in EtOH not more than 1% in cuvette. 0–4 μL of stock CBC was added using a Hamilton syringe in both the sample and blank cuvettes. The mixture was incubated for 5 min at 37 °C, and absorbance spectra were recorded using a Cary Bio 300 UV–vis spectrophotometer (Agilent Technologies, Santa Clara, CA). To eliminate the background absorbance, we derived the final spectra by […].

[2] = target: T2, CYP2D6 in the presence of CPR (Homo sapiens, UniProt P10635); test: Spectroscopic titration, CYP2D6–CPR complex; type: binding
T2 construct: His-tag; made in house; host or cells: E. coli DH-5α with pTGro7 plasmid (CYP)
T2 sequence (P10635 whole entry): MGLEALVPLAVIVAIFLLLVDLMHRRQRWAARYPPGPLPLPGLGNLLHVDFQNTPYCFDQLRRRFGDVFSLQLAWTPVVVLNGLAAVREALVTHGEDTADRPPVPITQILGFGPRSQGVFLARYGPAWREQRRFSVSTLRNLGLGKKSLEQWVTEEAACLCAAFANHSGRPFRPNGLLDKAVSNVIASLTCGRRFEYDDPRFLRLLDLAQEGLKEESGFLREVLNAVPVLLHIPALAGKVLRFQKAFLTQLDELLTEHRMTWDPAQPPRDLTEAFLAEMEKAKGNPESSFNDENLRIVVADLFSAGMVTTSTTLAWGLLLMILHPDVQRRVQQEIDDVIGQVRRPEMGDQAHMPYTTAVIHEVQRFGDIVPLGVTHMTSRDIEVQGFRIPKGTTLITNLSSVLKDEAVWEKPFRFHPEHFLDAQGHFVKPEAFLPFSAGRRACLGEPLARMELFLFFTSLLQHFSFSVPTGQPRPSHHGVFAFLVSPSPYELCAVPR
T2 sequence (P16435 whole entry partner): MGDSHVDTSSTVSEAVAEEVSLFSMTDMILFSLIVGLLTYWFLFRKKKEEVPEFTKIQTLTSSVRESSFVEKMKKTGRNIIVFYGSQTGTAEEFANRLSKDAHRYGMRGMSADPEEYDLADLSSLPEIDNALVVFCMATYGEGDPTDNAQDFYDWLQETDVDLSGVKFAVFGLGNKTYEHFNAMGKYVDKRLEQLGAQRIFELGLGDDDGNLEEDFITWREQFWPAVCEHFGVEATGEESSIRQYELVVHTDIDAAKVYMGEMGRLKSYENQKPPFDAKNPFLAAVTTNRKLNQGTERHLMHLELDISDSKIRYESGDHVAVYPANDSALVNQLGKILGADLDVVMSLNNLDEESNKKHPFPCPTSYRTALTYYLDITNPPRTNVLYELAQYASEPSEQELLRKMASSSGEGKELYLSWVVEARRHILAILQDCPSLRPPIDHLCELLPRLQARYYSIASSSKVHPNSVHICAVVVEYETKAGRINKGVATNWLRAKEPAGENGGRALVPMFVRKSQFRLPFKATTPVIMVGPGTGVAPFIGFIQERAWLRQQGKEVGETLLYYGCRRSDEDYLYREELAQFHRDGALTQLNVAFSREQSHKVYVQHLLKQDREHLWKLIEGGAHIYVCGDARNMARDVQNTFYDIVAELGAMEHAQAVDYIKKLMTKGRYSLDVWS
Experimental: For CBC titration to CYP–CPR complex, initially CYPs were dissolved in 400 μL of 0.1 M phosphate buffer (pH = 7.4) keeping the concentration between […]. Following this 50 μL of CPR (50 μM stock) was added to both cuvettes, and the final concentration of both of the proteins was 5–6 μM. Both proteins were initially mixed and incubated for 5 min followed by titration with CBC in the same process as mentioned above. The substrate-bound spectra were then subtracted from substrate-free spectra, and the extent of binding was analyzed using Origin Pro 2020.

[3] = target: cannabinoid receptor 2 (CB2); parameters: method as in PMID 31368508; settings: agonist; cited from earlier work
TRPV2 = test system: TRPV2; parameters: method as in PMID 30697147; settings: read-out: agonism toward TRPV2; cited from earlier work

Row | SMILES | detection as product of CBC metabolism in mouse plasma ([1]; mice, CBC 20 mg/kg IV or IP, plasma at 0.5 and 2 h) | detection in blood plasma after 2 h of CBC administration ([1]; mice, both IP and IV, 2 h) | plasma concentration relative to the 6′,7′-epoxy compound ([1]; mouse plasma 0.5 h after CBC 20 mg/kg, depending on mode of administration (IP or IV)) | ΔAmax (spin state change due to heme perturbation) (CYP2C8) | pKd (CYP2C8; read-out: Kd(app)) | ΔAmax (spin state change due to heme perturbation) [2] | pKd ([2]; read-out: Kd(app)) | pKi [3] | pEC50 (TRPV2)
1 | CCCCCc1cc(O)c2c(c1)OC(C)(CC/C=C(\C)CO)C=C2 (stereo not drawn) [8′-hydroxy-CBC] | detected | not detected | 4–8 times | – | – | – | – | – | –
2 | CCCCCc1cc(O)c2c(c1)OC(C)(CCC=C(C)C)C=C2 (stereo not drawn) [CBC, Cannabichromene] | – | – | – | 0.15 ± 0.00 and ~0.15 | 4.42 and ~4.42 | 0.04 ± 0.00 and 0.03–0.04 | 5.51 and > 5.00 and ~5.52 | ~7.00 | > 5.00
